Test results published in US11766468B2, “Method of treating prostate cancer with GnRH antagonist” (priority 2012, dated 2023).
Marks after values point to notes of the source that are not given here.

Assay: CS21 safety: treatment-emergent adverse events (MedDRA SOC/PT), crude incidence, also by subgroup
Type: in vivo
Conditions: for Musculoskeletal and connective tissue disorders, % of patients: pooled degarelix
Method: The safety variables for this study were assessed on the following: the frequency and severity of adverse events (AEs); the presence of clinically significant changes in laboratory parameters (clinical chemistry, hematology and urinalysis); changes in electrocardiograms (ECGs) and vital signs; changes detected by physical examination; and body weight.
An AE was therefore any unfavorable or unintended sign (including an abnormal laboratory finding), symptom or disease temporally associated with the use of the product, whether or not related to the IMP.
An adverse drug reaction (ADR) was defined as an AE evaluated by the investigator as being probably or possibly related to treatment with the IMP.
AEs were graded according to the National Cancer Institute (NCI) Common Terminology Criteria for Adverse Events (CTCAE). In accordance with the CTCAE criteria, AEs were rated on a five-point scale corresponding to mild, moderate, severe, life-threatening or disabling and death. For those AEs not described in the CTCAE, a separate five-point rating scale was used for rating of the intensity of AEs as follows below:
Safety parameters were evaluated for all patients included in the ITT analysis set, comprising all 610 randomized patients who received at least one dose of study medication. All safety tables include four columns: the three treatment groups described separately, and the pooled degarelix group.
Adverse events were regarded as ‘treatment-emergent’ if they occurred in the time interval from initial dosing to end-of-study. Adverse events were considered ‘pre-treatment’ if they occurred between screening and the initial injections of IMP. As described above, all AEs were classified according to MedDRA (version 10.0) system organ class (SOC), sorted alphabetically, and by preferred term (PT), in decreasing frequency of occurrence. Treatment-emergent AEs were expressed in terms of intensity (using NCI CTCAE) and relationship to study drug.
Using the results from the summary of clinical efficacy (SCE) and summary of clinical safety (SCS) findings, different patient subgroups were analyzed. Subgroup distinguishers included race (white, black, and other), age (<65 years, […], and >75 years), weight (<70 kg, ≥70−<90 kg, and ≥90 kg), body mass index (BMI) (≤20, >20 to 30, and >30 kg/m^2)), region (North-America, Western Europe, Central and Eastern Europe and Other), and stage of prostate cancer (e.g., localized, locally advanced, and metastatic).

[1] = degarelix Total (pooled), leuprolide 7.5 mg
[2] = degarelix Total (pooled), leuprolide 7.5 mg, listed as leuprolide

## CCNC(=O)[C@@H]1CCCN1C(=O)[C@H](CCCNC(=N)N)NC(=O)[C@H](CC(C)C)NC(=O)[C@@H](CC(C)C)NC(=O)[C@H](Cc1ccc(O)cc1)NC(=O)[C@H](CO)NC(=O)[C@H](Cc1c[nH]c2ccccc12)NC(=O)[C@H](Cc1c[nH]cn1)NC(=O)[C@@H]1CCC(=O)N1 [Leuprolide, leuprolide, reference compound]
Age <65
  Musculoskeletal and connective tissue disorders, % of patients: (34%)**
PCA = Localised
  Musculoskeletal and connective tissue disorders, % of patients: (25%)
PCA = Locally advanced
  Musculoskeletal and connective tissue disorders, % of patients: (19%)
PCA = Metastatic
  Musculoskeletal and connective tissue disorders, % of patients: (36%)
Race = White
  Musculoskeletal and connective tissue disorders, % of patients: (26%)**
Weight <70 kg
  Musculoskeletal and connective tissue disorders, % of patients: (36%)*
Weight >=90 kg
  Musculoskeletal and connective tissue disorders, % of patients: (32%)*
[1]
  Deaths (Grade 5), % of patients: 4%
  Deaths (Grade 5), E events: 10
  Deaths (Grade 5), N patients: 9
  Infections & infestations, % of patients: (24%)
  Musculoskeletal & connective tissue disorders, % of patients: (26%)
  Skin & subcutaneous tissue disorders, % of patients: ( 5%)
  Urinary tract infection, % of patients: ( 9%)
[2]
  Infections & infestations, % of patients: 24%
  Musculoskeletal & connective tissue disorders, % of patients: 26%
  Urinary tract infection, % of patients: 9%
In vivo
  Atrioventricular block first degree, % of patients: (6%)*
  Bronchitis, % of patients: ( 8%)*
  Chest pain, % of patients: ( 3%)*
  Cystitis noninfective, % of patients: (2%)*
  Deep vein thrombosis, % of patients: (2%)*
  Depression, % of patients: (6%)*
  Diarrhoea, % of patients: (8%)*
  Dyspnoea, % of patients: (6%)*
  Excoriation, % of patients: ( 4%)
  Fall, % of patients: ( 2%)
  Gynaecomastia, % of patients: (3%)
  Injury, poisoning and procedural complications, % of patients: (12%)**
  Investigations, % of patients: (30%)
  Libido decreased, % of patients: (3%)
  Musculoskeletal stiffness, % of patients: (2%)*
  Myocardial ischaemia, % of patients: ( 3%)*
  Nervous system disorders, % of patients: (10%)
  Orthostatic hypotension, % of patients: (2%)*
  Pain in extremity, % of patients: ( 9%)
  Pelvic pain, % of patients: (8%)*
  Psychiatric disorders, % of patients: (14%)
  Respiratory, thoracic and mediastinal disorders, % of patients: (10%)
  Syncope, % of patients: (2%)*
  Vascular disorders, % of patients: (30%)
